Measured values: patent US9975878B2, “Substituted triazine BMI-1 inhibitors” (PTC Therapeutics, Inc., priority 2013, dated 2018)

System: Bmi-1 protein
Experiment: Sandwich ELISA Assay: Bmi-1 protein level in HT-1080 cells treated with test compounds
Assay type: cell-based
Outline: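 HT-1080 cells exposed to compounds (final DMSO 0.5%) for 40-48 h at 37° C, 5% CO2, then lysed. Bmi-1 quantified by sandwich ELISA (mouse anti-Bmi-1 capture, rabbit anti-Bmi-1 detection, HRP anti-rabbit, TMB), read at OD450 with OD570 reference, against recombinant GST-Bmi-1 standard curve (0-8000 pg/mL).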

Row | EC50 | Compound
1 | 10 to 100 nM | COc1ccc(Nc2nc(N)nc(-n3c(C4CC4)nc4ccc(F)cc43)n2)cc1 [Cpd 176, 6-(2-cyclopropyl-6-fluoro-1H-benzimidazol-1-yl)-N-(4-methoxyphenyl)-1,3,5-triazine-2,4-diamine]
2 | 1 to 10 nM | Cc1ccc(Nc2nc(N)nc(-n3c(C4CC4)nc4ccc(F)cc43)n2)cc1 [Cpd 177, 6-(2-cyclopropyl-6-fluoro-1H-benzimidazol-1-yl)-N-(4-methylphenyl)-1,3,5-triazine-2,4-diamine]
3 | 10 to 100 nM | Nc1nc(Nc2ccc(Cl)cc2)nc(-n2c(C3CC3)nc3ccc(F)cc32)n1 [Cpd 178, N-(4-chlorophenyl)-6-(2-cyclopropyl-6-fluoro-1H-benzimidazol-1-yl)-1,3,5-triazine-2,4-diamine]
4 | 1 to 10 nM | COc1ccc(Nc2nc(N)nc(-n3c(C)nc4c(F)cccc43)n2)cc1 [Cpd 179, 6-(4-fluoro-2-methyl-1H-benzimidazol-1-yl)-N-(4-methoxyphenyl)-1,3,5-triazine-2,4-diamine]
5 | 1 to 10 nM | Cc1ccc(Nc2nc(N)nc(-n3c(C)nc4c(F)cccc43)n2)cc1 [Cpd 180, 6-(4-fluoro-2-methyl-1H-benzimidazol-1-yl)-N-(4-methylphenyl)-1,3,5-triazine-2,4-diamine]
6 | 100 to 3000 nM | Cc1nc2c(F)cccc2n1-c1nc(N)nc(Nc2ccc(Cl)cc2)n1 [Cpd 181, N-(4-chlorophenyl)-6-(4-fluoro-2-methyl-1H-benzimidazol-1-yl)-1,3,5-triazine-2,4-diamine]
7 | 1 to 10 nM | COc1ccc(Nc2nc(N)nc(-n3c(C4CC4)nc4c(F)cccc43)n2)cc1 [Cpd 182, 6-(2-cyclopropyl-4-fluoro-1H-benzimidazol-1-yl)-N-(4-methoxyphenyl)-1,3,5-triazine-2,4-diamine]
8 | 10 to 100 nM | Cc1ccc(Nc2nc(N)nc(-n3c(C4CC4)nc4c(F)cccc43)n2)cc1 [Cpd 183, 6-(2-cyclopropyl-4-fluoro-1H-benzimidazol-1-yl)-N-(4-methylphenyl)-1,3,5-triazine-2,4-diamine]
9 | 10 to 100 nM | Nc1nc(Nc2ccc(Cl)cc2)nc(-n2c(C3CC3)nc3c(F)cccc32)n1 [Cpd 184, N-(4-chlorophenyl)-6-(2-cyclopropyl-4-fluoro-1H-benzimidazol-1-yl)-1,3,5-triazine-2,4-diamine]
10 | 1 to 10 nM | COc1ccc(Nc2nc(N)nc(-n3c(C)nc4c(F)cc(F)cc43)n2)cc1 [Cpd 185, 6-(4,6-difluoro-2-methyl-1H-benzimidazol-1-yl)-N-(4-methoxyphenyl)-1,3,5-triazine-2,4-diamine]
11 | 1 to 10 nM | Cc1ccc(Nc2nc(N)nc(-n3c(C)nc4c(F)cc(F)cc43)n2)cc1 [Cpd 186, 6-(4,6-difluoro-2-methyl-1H-benzimidazol-1-yl)-N-(4-methylphenyl)-1,3,5-triazine-2,4-diamine]
12 | 100 to 3000 nM | Cc1nc2c(F)cc(F)cc2n1-c1nc(N)nc(Nc2ccc(Cl)cc2)n1 [Cpd 187, N-(4-chlorophenyl)-6-(4,6-difluoro-2-methyl-1H-benzimidazol-1-yl)-1,3,5-triazine-2,4-diamine]
13 | 1 to 10 nM | CCc1nc2c(F)cc(F)cc2n1-c1nc(N)nc(Nc2ccc(OC)cc2)n1 [Cpd 188, 6-(2-ethyl-4,6-difluoro-1H-benzimidazol-1-yl)-N-(4-methoxyphenyl)-1,3,5-triazine-2,4-diamine]
14 | 10 to 100 nM | CCc1nc2c(F)cc(F)cc2n1-c1nc(N)nc(Nc2ccc(C)cc2)n1 [Cpd 189, 6-(2-ethyl-4,6-difluoro-1H-benzimidazol-1-yl)-N-(4-methylphenyl)-1,3,5-triazine-2,4-diamine]
15 | 10 to 100 nM | CCc1nc2c(F)cc(F)cc2n1-c1nc(N)nc(Nc2ccc(Cl)cc2)n1 [Cpd 190, N-(4-chlorophenyl)-6-(2-ethyl-4,6-difluoro-1H-benzimidazol-1-yl)-1,3,5-triazine-2,4-diamine]
16 | 10 to 100 nM | COc1ccc(Nc2nc(N)nc(-n3c(C4CC4)nc4cc(F)ccc43)n2)cc1 [Cpd 191, 6-(2-cyclopropyl-5-fluoro-1H-benzimidazol-1-yl)-N-(4-methoxyphenyl)-1,3,5-triazine-2,4-diamine]
17 | 1 to 10 nM | Cc1ccc(Nc2nc(N)nc(-n3c(C4CC4)nc4cc(F)ccc43)n2)cc1 [Cpd 192, 6-(2-cyclopropyl-5-fluoro-1H-benzimidazol-1-yl)-N-(4-methylphenyl)-1,3,5-triazine-2,4-diamine]
18 | 100 to 3000 nM | Nc1nc(Nc2ccc(Cl)cc2)nc(-n2c(C3CC3)nc3cc(F)ccc32)n1 [Cpd 193, N-(4-chlorophenyl)-6-(2-cyclopropyl-5-fluoro-1H-benzimidazol-1-yl)-1,3,5-triazine-2,4-diamine]
19 | 1 to 10 nM | COc1ccc(Nc2nc(N)nc(-n3c(C)nc4cc(F)c(F)cc43)n2)cc1 [Cpd 194, 6-(5,6-difluoro-2-methyl-1H-benzimidazol-1-yl)-N-(4-methoxyphenyl)-1,3,5-triazine-2,4-diamine]
20 | 10 to 100 nM | Cc1ccc(Nc2nc(N)nc(-n3c(C)nc4cc(F)c(F)cc43)n2)cc1 [Cpd 195, 6-(5,6-difluoro-2-methyl-1H-benzimidazol-1-yl)-N-(4-methylphenyl)-1,3,5-triazine-2,4-diamine]

Row | EC50 | Compound
21 | 100 to 3000 nM | Cc1nc2cc(F)c(F)cc2n1-c1nc(N)nc(Nc2ccc(Cl)cc2)n1 [Cpd 196, N-(4-chlorophenyl)-6-(5,6-difluoro-2-methyl-1H-benzimidazol-1-yl)-1,3,5-triazine-2,4-diamine]
22 | 100 to 3000 nM | Cc1nc2ccccc2n1-c1nc(N)nc(Nc2ccc(Cl)c(F)c2)n1 [Cpd 197, N-(4-chloro-3-fluorophenyl)-6-(2-methyl-1H-benzimidazol-1-yl)-1,3,5-triazine-2,4-diamine]
23 | 10 to 100 nM | CCc1nc2ccccc2n1-c1nc(N)nc(Nc2ccc(Cl)c(F)c2)n1 [Cpd 198, N-(4-chloro-3-fluorophenyl)-6-(2-ethyl-1H-benzimidazol-1-yl)-1,3,5-triazine-2,4-diamine]
24 | 100 to 3000 nM | Cc1nc2c(F)cc(F)cc2n1-c1nc(N)nc(Nc2ccc(Cl)c(F)c2)n1 [Cpd 199, N-(4-chloro-3-fluorophenyl)-6-(4,6-difluoro-2-methyl-1H-benzimidazol-1-yl)-1,3,5-triazine-2,4-diamine]
25 | 100 to 3000 nM | CCc1nc2c(F)cc(F)cc2n1-c1nc(N)nc(Nc2ccc(Cl)c(F)c2)n1 [Cpd 200, N-(4-chloro-3-fluorophenyl)-6-(2-ethyl-4,6-difluoro-1H-benzimidazol-1-yl)-1,3,5-triazine-2,4-diamine]
26 | 100 to 3000 nM | Cc1nc2ccc(F)cc2n1-c1nc(N)nc(Nc2ccc(Cl)c(F)c2)n1 [Cpd 201, N-(4-chloro-3-fluorophenyl)-6-(6-fluoro-2-methyl-1H-benzimidazol-1-yl)-1,3,5-triazine-2,4-diamine]
27 | 100 to 3000 nM | Cc1nc2ccccc2n1-c1cnnc(Nc2ccc(OC(F)F)cc2)n1 [Cpd 202, N-[4-(difluoromethoxy)phenyl]-5-(2-methyl-1H-benzimidazol-1-yl)-1,2,4-triazin-3-amine]
28 | 10 to 100 nM | CCc1nc2ccccc2n1-c1cnnc(Nc2ccc(OC(F)F)cc2)n1 [Cpd 203, N-[4-(difluoromethoxy)phenyl]-5-(2-ethyl-1H-benzimidazol-1-yl)-1,2,4-triazin-3-amine]
29 | 1 to 10 nM | COc1ccc(Nc2nncc(-n3c(C)nc4ccccc43)n2)cc1 [Cpd 204, N-(4-methoxyphenyl)-5-(2-methyl-1H-benzimidazol-1-yl)-1,2,4-triazin-3-amine]
30 | 1 to 10 nM | CCc1nc2ccccc2n1-c1cnnc(Nc2ccc(OC)cc2)n1 [Cpd 205, 5-(2-ethyl-1H-benzimidazol-1-yl)-N-(4-methoxyphenyl)-1,2,4-triazin-3-amine]
31 | 1 to 10 nM | Cc1nc2ccccc2n1-c1nc(N)nc(Nc2ccc(Br)cc2)n1 [Cpd 206, N-(4-bromophenyl)-6-(2-methyl-1H-benzimidazol-1-yl)-1,3,5-triazine-2,4-diamine]
32 | 1 to 10 nM | CCc1nc2ccccc2n1-c1nc(N)nc(Nc2ccc(Br)cc2)n1 [Cpd 207, N-(4-bromophenyl)-6-(2-ethyl-1H-benzimidazol-1-yl)-1,3,5-triazine-2,4-diamine]
33 | 10 to 100 nM | Cc1nc2c(F)cc(F)cc2n1-c1nc(N)nc(Nc2ccc(Br)cc2)n1 [Cpd 208, N-(4-bromophenyl)-6-(4,6-difluoro-2-methyl-1H-benzimidazol-1-yl)-1,3,5-triazine-2,4-diamine]
34 | 1 to 10 nM | CCc1nc2c(F)cc(F)cc2n1-c1nc(N)nc(Nc2ccc(Br)cc2)n1 [Cpd 209, N-(4-bromophenyl)-6-(2-ethyl-4,6-difluoro-1H-benzimidazol-1-yl)-1,3,5-triazine-2,4-diamine]
35 | 10 to 100 nM | Cc1nc2cc(F)c(F)cc2n1-c1nc(N)nc(Nc2ccc(Br)cc2)n1 [Cpd 210, N-(4-bromophenyl)-6-(5,6-difluoro-2-methyl-1H-benzimidazol-1-yl)-1,3,5-triazine-2,4-diamine]
36 | 10 to 100 nM | Cc1nc2ccc(F)cc2n1-c1nc(N)nc(Nc2ccc(Br)cc2)n1 [Cpd 211, N-(4-bromophenyl)-6-(6-fluoro-2-methyl-1H-benzimidazol-1-yl)-1,3,5-triazine-2,4-diamine]
37 | 1 to 10 nM | CCc1nc2c(F)cccc2n1-c1nc(N)nc(Nc2ccc(OC)cc2)n1 [Cpd 212, 6-(2-ethyl-4-fluoro-1H-benzimidazol-1-yl)-N-(4-methoxyphenyl)-1,3,5-triazine-2,4-diamine]
38 | 1 to 10 nM | CCc1nc2c(F)cccc2n1-c1nc(N)nc(Nc2ccc(C)cc2)n1 [Cpd 213, 6-(2-ethyl-4-fluoro-1H-benzimidazol-1-yl)-N-(4-methylphenyl)-1,3,5-triazine-2,4-diamine]
39 | 10 to 100 nM | CCc1nc2c(F)cccc2n1-c1nc(N)nc(Nc2ccc(Cl)cc2)n1 [Cpd 214, N-(4-chlorophenyl)-6-(2-ethyl-4-fluoro-1H-benzimidazol-1-yl)-1,3,5-triazine-2,4-diamine]
40 | 10 to 100 nM | CCc1nc2c(F)cccc2n1-c1nc(N)nc(Nc2ccc(Cl)c(F)c2)n1 [Cpd 215, N-(4-chloro-3-fluorophenyl)-6-(2-ethyl-4-fluoro-1H-benzimidazol-1-yl)-1,3,5-triazine-2,4-diamine]
